Test results from article PMC5073322, “Novel Natural Product-like Caged Xanthones Bearing a Carbamate Moiety Exhibit Antitumor Potency and Anti-Angiogenesis Activity In vivo” (Scientific Reports, 2016).
Values after ≈ are worked out from the molar mass of the structure shown. Read-outs that look alike come from different tables or passages of the source.

Experiments:
A549/cisplatin = assay: MTT antiproliferative assay, cisplatin-resistant A549; type: cell-based; conditions: Homo sapiens
MDA-MB-231 = assay: MTT antiproliferative assay, MDA-MB-231; conditions: Homo sapiens, MDA-MB-231, 72 h
Experimental: (§1) The inhibition of tumour cell growth was measured by a modified tetrazolium (MTT) salt assay, as previously described[39]. Cells were cultured in a 96-well plate and treated with culture medium alone or different concentrations of the compounds. The cells were incubated for 72 h, and then, the MTT assay reagent was added. After a 4 h incubation, the formazan product was quantitated at 570 nm. The IC50 values (the concentrations that gave rise to 50% inhibition of cell viability) were calculated using GraphPad Prism 6 using a variable slope (four parameters).

HepG2 = assay: MTT antiproliferative assay, HepG2
Experimental: as §1

A549 = assay: MTT antiproliferative assay, A549; conditions: Homo sapiens, A549, 72 h
Experimental: as §1

[1] = Parallel artificial membrane permeability assay (PAMPA); type: in vitro ADME; conditions: for permeability relative to DDO-6101 and GA: PAMPA, different pH values (Fig. 5)
Experimental: Permeability is another important property that reflects the ability of molecules to diffuse through cell membranes. The permeability coefficients were determined using a standard parallel artificial membrane permeability assay (PAMPA) on a PAMPA Explorer instrument (Pion, Inc., MA, USA)[34].
A HPLC system with an ultraviolet (UV) detector was used to detect the solubility of the compounds. The optimal wavelength was 290 nm. Ethanol/water (85:15) was an efficient eluent at a flow rate of 0.5 mL/min. The compounds were stirred in deionized water overnight to maximize the retention of the compounds in solution. Then, the solutions were filtered and the supernatant was used as a fluid sample for HPLC detection. The permeability (Pe) of some of the compounds was tested with the help of a standard PAMPA (pION), as previously reported. PAMPA was performed on a PAMPA Explorer instrument (pION, Inc., Woburn, MA) with the PAMPA Explorer command software (Version 3.7.4.1). […] Then, 150 μL of the diluted compound solution was transferred to a UV plate, and the UV spectrum was collected and used as a reference. Then, paint the membrane with 5 μL of gastrointestinal tract (GIT) lipid. The acceptor chamber was filled with 200 μL of acceptor solution buffer, and the donor chamber was filled with 200 μL of diluted compound solution. The PAMPA sandwich was assembled and left at 25 °C for 4 h. The UV spectra (240–500 nm) from the donor and the acceptor were collected. The permeability coefficient was calculated with the PAMPA Explorer Command software (Version 3.7.4.1) based on the area under the curve (AUC) of the reference plate, the donor plate, and the acceptor plate. The permeability coefficient of the compound was tested for four times, and the data are shown as the average values. Ketoprofen (4.5×10^−6 cm/s) and propranolol (112.8×10^−6 cm/s) were used as the standards in this assay.

Water solubility by HPLC = type: physicochemical; conditions: deionized water, stirred overnight, HPLC 290 nm; for solubility: thermodynamic from solid, read-out: S, water solubility
Source text: The physicochemical characteristics of compounds directly determine their potential drug-like properties. Assessing a compound’s physicochemical properties before performing in vivo evaluations can guide further studies and minimize the time and cost associated with drug discovery. Therefore, parallel to the in vivo study, these solubilities of these compounds in water were experimentally measured using high-performance liquid chromatography (HPLC). Based on the results of full wave scanning, 290 nm was chosen as the maximum absorption wavelength for HPLC detection.
A HPLC system with an ultraviolet (UV) detector was used to detect the solubility of the compounds. The optimal wavelength was 290 nm. Ethanol/water (85:15) was an efficient eluent at a flow rate of 0.5 mL/min. The compounds were stirred in deionized water overnight to maximize the retention of the compounds in solution. Then, the solutions were filtered and the supernatant was used as a fluid sample for HPLC detection. The permeability (Pe) of some of the compounds was tested with the help of a standard PAMPA (pION), as previously reported. PAMPA was performed on a PAMPA Explorer instrument (pION, Inc., Woburn, MA) with the PAMPA Explorer command software (Version 3.7.4.1). The compounds were diluted to 10 mM with the system solution buffer (pH 7.4). Then, 150 μL of the diluted compound solution was transferred to a UV plate, and the UV spectrum was collected and used as a reference. Then, paint the membrane with 5 μL of gastrointestinal tract (GIT) lipid. The acceptor chamber was filled with 200 μL of acceptor solution buffer, and the donor chamber was filled with 200 μL of diluted compound solution. The PAMPA sandwich was assembled and left at 25 °C for 4 h. The UV spectra (240–500 nm) from the donor and the acceptor were collected. The permeability coefficient was calculated with the PAMPA Explorer Command software (Version 3.7.4.1) based on the area under the curve (AUC) of the reference plate, the donor plate, and the acceptor plate. The permeability coefficient of the compound was tested for four times, and the data are shown as the average values. Ketoprofen (4.5×10^−6 cm/s) and propranolol (112.8×10^−6 cm/s) were used as the standards in this assay.

HCT116 = assay: MTT antiproliferative assay, HCT116
A549/taxol = assay: MTT antiproliferative assay, Taxol-resistant A549; type: cell-based; conditions: for IC50: 72 h, Taxol-resistant A549
Experimental: as §1

[2] = MTT, 72 h, read-out: IC50 A549/cisplatin
[3] = Homo sapiens, HepG2, 72 h, read-out: IC50 HepG2
[4] = Homo sapiens, HCT-116, 72 h, read-out: IC50 HCT116
[5] = A549, 72 h, read-out: IC50 A549/cisplatin, MTT, 72 h
[6] = read-out: IC50 MDA-MB-231, MTT, 72 h

| SMILES | IC50 (A549/cisplatin; [2]) [µM] | IC50 (MDA-MB-231; read-out: IC50 MDA-MB-231) [µM] | IC50 (HepG2; [3]) [µM] | IC50 (A549; read-out: IC50 A549) [µM] | permeability relative to DDO-6101 and GA [1] | solubility (Water solubility by HPLC) [µM] | IC50 (HCT116; [4]) [µM] | IC50 (A549/taxol; MTT, read-out: IC50 A549/taxol) [µM] | also measured |
| --- | --- | --- | --- | --- | --- | --- | --- | --- | --- |
| CCN(CC)C(=O)Oc1cccc2c1C(=O)C1=CC3CC4C(C)(C)OC(CC=C(C)C)(C3=O)C14O2 (centres unmarked) [Compound 8b] | 1.46 ± 0.09 | 0.47 ± 0.07 | 1.88 ± 0.14 | 2.86 ± 0.02 | improved the permeability | 30 (≈ 14.4 µg/mL) | 2.87 ± 0.07 | 0.68 ± 0.08 |  |
| CC(C)=CCC12OC(C)(C)C3CC(C=C4C(=O)c5c(OC(=O)N6CCOCC6)cccc5OC431)C2=O (centres unmarked) [Compound 8d] | 1.48 ± 0.25 | 0.58 ± 0.04 | 2.31 ± 0.18 | 9.81 ± 0.17 | improved the permeability | 40 (≈ 19.7 µg/mL) | 0.71 ± 0.04 | 0.53 ± 0.08 |  |
| CC(C)=CCC12OC(C)(C)C3CC(C=C4C(=O)c5c(cccc5OS(C)(=O)=O)OC431)C2=O (centres unmarked) [Compound 2] |  | 2 ± 0.07 | 1.41 ± 0.06 |  |  | 20 (≈ 9.17 µg/mL) | 2.12 ± 0.14 |  |  |
| CC(C)=CCC12OC(C)(C)C3CC(C=C4C(=O)c5c(OC(=O)N6CCC(N7CCCCC7)CC6)cccc5OC431)C2=O (centres unmarked) [Compound 8l] |  |  |  |  | improved the permeability |  |  |  | IC50 (A549/cisplatin; [5]): 0.98 ± 0.13 µM; IC50 (MDA-MB-231; [6]): 0.88 ± 0.05 µM; IC50 (HepG2; read-out: IC50 HepG2, MTT, 72 h): 0.34 ± 0.27 µM; IC50 (A549; read-out: IC50 A549, MTT, 72 h): 10.1 ± 2.1 µM; S, water solubility (Water solubility by HPLC): 80 µM; IC50 (HCT116; read-out: IC50 HCT116, MTT, 72 h): 2.49 ± 0.33 µM; fold higher activity against the resistant A549 cell line than A549 (A549/taxol; Taxol-resistant and cisplatin-resistant A549 versus A549): 10–15 fold; IC50 (A549/taxol; read-out: IC50 A549/taxol, MTT): 0.61 ± 0.04 µM |
| CC(C)NCC(O)COc1cccc2ccccc12 (centres unmarked) [propranolol, reference compound] |  |  |  |  |  |  |  |  | permeability coefficient (Pe) ([1]; PAMPA standards, 25 °C, 4 h): 112.8 ×10⁻⁶ cm/s |
| CC(C)=CCC12OC(C)(C)C3CC(C=C4C(=O)c5c(OC(=O)N6CCCCC6)cccc5OC431)C2=O (centres unmarked) [Compound 8f] | 2.98 ± 0.17 | 0.87 ± 0.16 | 0.95 ± 0.09 | 2.93 ± 0.02 |  | 50 (≈ 24.6 µg/mL) | 1.02 ± 0.07 | 1.45 ± 0.18 |  |
| CC(C)=CCC12OC(C)(C)C3CC(C=C4C(=O)c5c(OC(=O)N6CCCC6)cccc5OC431)C2=O (centres unmarked) [Compound 8e] | 5.68 ± 0.15 | 4.4 ± 1.5 | 0.99 ± 0.01 | 8.63 ± 0.19 |  | 40 (≈ 19.1 µg/mL) | 1.06 ± 0.09 | 12.4 ± 0.29 |  |
| CCN(C)C(=O)Oc1cccc2c1C(=O)C1=CC3CC4C(C)(C)OC(CC=C(C)C)(C3=O)C14O2 (centres unmarked) [Compound 8c] |  |  |  |  |  |  |  |  | IC50 (A549/cisplatin; [5]): 1.48 ± 0.14 µM; IC50 (MDA-MB-231; [6]): 0.25 ± 0.12 µM; IC50 (HepG2; Homo sapiens, HepG2, 72 h, read-out: IC50 HepG2, MTT, 72 h): 2.56 ± 0.19 µM; IC50 (A549; read-out: IC50 A549, MTT, 72 h): 3.05 ± 0.58 µM; solubility (Water solubility by HPLC; water): 30 µM (≈ 14 µg/mL); IC50 (HCT116; Homo sapiens, HCT-116, 72 h, read-out: IC50 HCT116, MTT, 72 h): 2.75 ± 0.14 µM; IC50 (A549/taxol; A549/Taxol, read-out: IC50 A549/taxol, MTT, 72 h): 0.66 ± 0.16 µM |
| CC(C)=CCC12OC(C)(C)C3CC(C=C4C(=O)c5c(OC(=O)N(CCO)CCO)cccc5OC431)C2=O (centres unmarked) [Compound 8j] | 3.78 ± 0.11 | 6.2 ± 0.11 | 5.21 ± 0.01 | 10.24 ± 0.1 |  | 60 (≈ 30.7 µg/mL) | 4.14 ± 0.05 | 4.25 ± 0.7 |  |
| CCOC(=O)COc1cccc2c1C(=O)C1=CC3CC4C(C)(C)OC(CC=C(C)C)(C3=O)C14O2 (centres unmarked) [Compound 4] |  | 5.42 ± 0.57 | 12.7 ± 0.97 |  |  | 10 (≈ 4.67 µg/mL) | 8.13 ± 0.73 |  |  |
